Patent US10202360B2 (CELGENE QUANTICEL RESEARCH, INC., priority 2016, dated 2019)

Key:
[1] = molecular target: BRD4 (Homo sapiens (Human), UniProt O60885); assay: In vitro enzyme inhibition assay - BRD4 inhibition (as described in U.S. Pat. No. 9,034,900); type: binding; conditions: Table 29; BRD4 BD1
[2] = molecular target: CREBBP (Homo sapiens (Human), UniProt Q92793); assay: In vitro enzyme inhibition assay - CREBBP inhibition (AlphaScreen, biotinylated H4-tetraacetyl peptide); type: binding
Sequence of CREBBP (Q92793 1081-1197): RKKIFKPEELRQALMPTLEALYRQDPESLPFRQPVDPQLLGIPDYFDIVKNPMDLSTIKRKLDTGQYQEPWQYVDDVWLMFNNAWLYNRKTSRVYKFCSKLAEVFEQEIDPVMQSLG
Summary of the method: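 Displacement of 20 nM biotinylated tetraacetyl-H4 peptide from 50 nM E. coli-expressed His-CREBBP, measured by AlphaScreen after bead equilibration for 2 h.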

[3] = Table 28, AlphaScreen, H4-tetraacetyl peptide

| SMILES | IC50 [1] | IC50 [2, 3] | IC50 ([2]; Table 29) |
| --- | --- | --- | --- |
| CCCCS(=O)(=O)Nc1cc(-c2cc(Cl)c(=O)n(C)c2)nc(Oc2c(C)cccc2C)n1 [Example 87, N-(6-(5-chloro-1-methyl-6-oxo-1,6-dihydropyridin-3-yl)-2-(2,6-dimethylphenoxy)pyrimidin-4-yl)butane-1-sulfonamide] | > 5000 nM | < 500 nM | < 500 nM |
| CCS(=O)(=O)Nc1ncc(Oc2ccc(F)cc2F)c(-c2cc(C)c(=O)n(CC3CC3)c2)n1 | < 500 nM | – | > 5000 nM |
| Cc1cc(-c2cc(NS(=O)(=O)C3CCCC3)nc(Oc3ccc(F)cc3F)n2)cn(C)c1=O [Example 66, N-(2-(2,4-difluorophenoxy)-6-(1,5-dimethyl-6-oxo-1,6-dihydropyridin-3-yl)pyrimidin-4-yl)cyclopentanesulfonamide] | 500 to 5000 nM | < 500 nM | < 500 nM |
| CCCCS(=O)(=O)Nc1cc(-c2cc(C)c(=O)n(C)c2)nc(Oc2c(C)cccc2C)n1 [Example 72, N-(6-(1,5-dimethyl-6-oxo-1,6-dihydropyridin-3-yl)-2-(2,6-dimethylphenoxy)pyrimidin-4-yl)butane-1-sulfonamide] | > 5000 nM | < 500 nM | < 500 nM |
| CCCCS(=O)(=O)Nc1cc(-c2cc(C)c(=O)n(C)c2)nc(Oc2c(C)cccc2Cl)n1 [Example 14, Butane-1-sulfonic acid [2-(2-chloro-6-methyl-phenoxy)-6-(1,5-dimethyl-6-oxo-1,6-dihydro-pyridin-3-yl)-pyrimidin-4-yl]-amide] | 500 to 5000 nM | < 500 nM | < 500 nM |
| CCCCS(=O)(=O)Nc1cc(-c2ccc(=O)n(C)c2)nc(Oc2c(C)cccc2F)n1 [Example 113, Butane-1-sulfonic acid [2-(2-fluoro-6-methyl-phenoxy)-6-(1-methyl-6-oxo-1,6-dihydro-pyridin-3-yl)-pyrimidin-4-yl]-amide] | > 5000 nM | < 500 nM | < 500 nM |
| CCS(=O)(=O)Nc1ncc(Oc2ccc(F)cc2F)c(-c2cc(C)c(=O)n(C)c2)n1 [N-(5-(2,4-difluorophenoxy)-4-(1,5-dimethyl-6-oxo-1,6-dihydropyridin-3-yl)-pyrimidin-2-yl)ethanesulfonamide] | < 500 nM | – | > 5000 nM |
| Cc1cc(-c2nc(NS(C)(=O)=O)ncc2Oc2ccc(F)cc2F)cn(C)c1=O [N-(5-(2,4-difluorophenoxy)-4-(1,5-dimethyl-6-oxo-1,6-dihydropyridin-3-yl)-pyrimidin-2-yl)methanesulfonamide] | < 500 nM | – | > 5000 nM |
| Cc1cc(Cl)cc(Cl)c1Oc1nc(NS(=O)(=O)C(C)C)cc(-c2cc(C)c(=O)n(C)c2)n1 [Example 33, Propane-2-sulfonic acid [2-(2,4-dichloro-6-methyl-phenoxy)-6-(1,5-dimethyl-6-oxo-1,6-dihydro-pyridin-3-yl)-pyrimidin-4-yl]-amide] | > 5000 nM | < 500 nM | < 500 nM |
| Cc1cccc(Cl)c1Oc1nc(NS(=O)(=O)C(C)C)cc(-c2cc(C)c(=O)n(C)c2)n1 [Example 3, Propane-2-sulfonic acid [2-(2-chloro-6-methyl-phenoxy)-6-(1,5-dimethyl-6-oxo-1,6-dihydro-pyridin-3-yl)-pyrimidin-4-yl]-amide] | 500 to 5000 nM | < 500 nM | < 500 nM |
| COc1cccc(C#N)c1Oc1nc(NS(=O)(=O)C(C)C)cc(-c2cc(C)c(=O)n(C)c2)n1 [Example 11, Propane-2-sulfonic acid [2-(2-cyano-6-methoxy-phenoxy)-6-(1,5-dimethyl-6-oxo-1,6-dihydro-pyridin-3-yl)-pyrimidin-4-yl]-amide] | > 5000 nM | < 500 nM | < 500 nM |
| CCCCS(=O)(=O)Nc1cc(-c2cc(C)c(=O)n(C)c2)nc(Oc2c(Cl)cccc2CC)n1 [Example 41, Butane-1-sulfonic acid [2-(2-chloro-6-ethyl-phenoxy)-6-(1,5-dimethyl-6-oxo-1,6-dihydro-pyridin-3-yl)-pyrimidin-4-yl]-amide] | > 5000 nM | < 500 nM | < 500 nM |
| CCS(=O)(=O)Nc1cc(-c2ccc(=O)n(C)c2)nc(Oc2c(C)cc(Cl)cc2Cl)n1 [Example 30, Ethanesulfonic acid [2-(2,4-dichloro-6-methyl-phenoxy)-6-(1-methyl-6-oxo-1,6-dihydro-pyridin-3-yl)-pyrimidin-4-yl]-amide] | – | < 500 nM | – |
| Cc1cc(-c2cc(NS(=O)(=O)C(C)C)cc(Oc3ccc(F)cc3F)n2)cn(C)c1=O [Example 90, N-(6-(2,4-difluorophenoxy)-1′,5′-dimethyl-6′-oxo-1′,6′-dihydro-[2,3′-bipyridin]-4-yl)propane-2-sulfonamide] | – | < 500 nM | – |
